Assay: xn = mol fraction of the nth substance listed

CCCCCCCCCCCCCCCC[n+]1ccccc1.O=C([O-])c1ccccc1O + NCC(=O)O + O
electrical conductivity [S/m], 101 kPa
Conditions	293.15 K	298.15 K	303.15 K	308.15 K	313.15 K
x2 = 0.0009002, x1 = 5.4e-07	0.000445	0.000504	0.00057	0.000642	0.000723
x2 = 0.0009002, x1 = 1.26e-06	0.00068	0.000773	0.00087	0.000972	0.00108
x2 = 0.0009002, x1 = 1.63e-06	0.000841	0.000952	0.00107	0.0012	0.00134
x2 = 0.0009002, x1 = 1.99e-06	0.000997	0.00113	0.00127	0.00141	0.00156
x2 = 0.0009002, x1 = 2.35e-06	0.00114	0.00129	0.00145	0.00161	0.00179
x2 = 0.0009002, x1 = 2.89e-06	0.00127	0.00145	0.00164	0.00184	0.00205
x2 = 0.0009002, x1 = 3.43e-06	0.00141	0.00161	0.00185	0.00211	0.00234
x2 = 0.0009002, x1 = 4.16e-06	0.00157	0.0018	0.00206	0.00234	0.00264
x2 = 0.0009002, x1 = 4.88e-06	0.00173	0.00198	0.00226	0.00258	0.00292
x2 = 0.0009002, x1 = 5.6e-06	0.0019	0.00216	0.00247	0.00281	0.00318
x2 = 0.0009002, x1 = 6.32e-06	0.00205	0.00234	0.00267	0.00302	0.00343
x2 = 0.0009002, x1 = 6.87e-06	–	–	–	–	0.00364
x2 = 0.0009002, x1 = 7.05e-06	0.00217	0.0025	0.00284	0.00321	–
x2 = 0.0009002, x1 = 7.59e-06	0.00232	0.00264	0.003	0.00339	0.00383
x2 = 0.0009002, x1 = 8.13e-06	0.00244	0.00278	0.00314	0.00356	0.00402
x2 = 0.0009002, x1 = 8.67e-06	0.00258	0.00292	0.00331	0.00374	0.00421
x2 = 0.001799, x1 = 3.6e-07	0.000498	0.000578	0.00067	0.000776	0.0009
x2 = 0.001799, x1 = 9.1e-07	0.000684	0.000791	0.00091	0.00104	0.00119
x2 = 0.001799, x1 = 1.45e-06	0.000895	0.00102	0.00117	0.00132	0.0015
x2 = 0.001799, x1 = 1.99e-06	0.0011	0.00125	0.00141	0.0016	0.0018
x2 = 0.001799, x1 = 2.17e-06	0.00119	0.00135	0.00153	0.00172	0.00194
x2 = 0.001799, x1 = 2.54e-06	0.00127	0.00145	0.00166	0.00187	0.00209
x2 = 0.001799, x1 = 2.72e-06	0.00134	0.00155	0.00178	0.002	0.00225
x2 = 0.001799, x1 = 3.08e-06	0.0014	0.00162	0.00186	0.0021	0.00237
x2 = 0.001799, x1 = 3.26e-06	–	–	0.00195	0.00223	0.00251
x2 = 0.001799, x1 = 3.44e-06	0.00146	0.00169	–	–	–
x2 = 0.001799, x1 = 3.81e-06	0.00155	0.0018	0.00206	0.00236	0.00267
x2 = 0.001799, x1 = 4.35e-06	0.00167	0.00192	0.0022	0.00253	0.00287
x2 = 0.001799, x1 = 4.89e-06	0.00179	0.00206	0.00236	0.0027	0.00307
x2 = 0.001799, x1 = 5.44e-06	0.00192	0.0022	0.00252	0.00289	0.00328
x2 = 0.001799, x1 = 5.98e-06	0.00202	0.00232	0.00265	0.00303	0.00344
x2 = 0.001799, x1 = 6.34e-06	–	–	–	–	0.00359
x2 = 0.001799, x1 = 6.52e-06	0.00213	0.00244	0.00278	0.00316	–

CC(C)O + O + CCCCCCCCCCCCOS(=O)(=O)[O-].[Na+]
298 K, 100 kPa, frequency 0.001 MHz
Conditions	electrical conductivity [S/m]
x1 = 0.01509, x3 = 0	0.00013
x1 = 0.02546, x2 = 0.9745	0.00014

CCCC[N+]1(C)CCCC1.N#C[N-]S(=O)(=O)C(F)(F)F + N#C[N-]S(=O)(=O)C(F)(F)F.[Li+]
101 kPa, frequency 0 MHz, x2 = 0
Conditions	electrical conductivity [S/m]
308 K	0.644
313 K	0.752

101 kPa, x2 = 0
Conditions	viscosity [mPa·s]
308 K	33.6
313 K	28.6

CCCCCC[n+]1ccn(C)c1.O=S(=O)([O-])C(F)(F)F + CC(C)O
100 kPa
Conditions	viscosity [mPa·s]
293.15 K, x2 = 0.9231	3.79
298.15 K, x2 = 0.1282	99
298.15 K, x2 = 0.2454	67.9
298.15 K, x2 = 0.469	31.4
303.15 K, x2 = 0.3506	41.2
313.15 K, x2 = 0.9231	2.08

CCCCCCCCCCCCCC[P+](CCCCCC)(CCCCCC)CCCCCC.O=S(=O)([N-]S(=O)(=O)C(F)(F)F)C(F)(F)F + O
Conditions	viscosity [mPa·s]
328.15 K, 100 kPa, x2 = 0.088	65.75

CCCC[n+]1ccn(C)c1.O=S(=O)([O-])C(F)(F)F + CCCC[n+]1ccn(C)c1.F[P-](F)(F)(F)(F)F
100 kPa
Conditions	viscosity [mPa·s]
293.15 K, x2 = 0.006063	91.5
293.15 K, x2 = 0.15	109.5
293.15 K, x2 = 0.1999	116.6
293.15 K, x2 = 0.7	218
298.15 K, x2 = 0.08059	83.4
303.15 K, x2 = 0.08059	69.3
303.15 K, x2 = 0.1	70.8
308.15 K, x2 = 0.15	60
308.15 K, x2 = 0.1999	63.1
313.15 K, x2 = 0.1999	50.6
313.15 K, x2 = 0.5002	66.8
313.15 K, x2 = 0.7995	88.2
318.15 K, x2 = 0.15	40
318.15 K, x2 = 0.1999	41.75
318.15 K, x2 = 0.3	45.51
318.15 K, x2 = 0.8997	76.3
323.15 K, x2 = 0.3	38.24
323.15 K, x2 = 0.8997	62.3
328.15 K, x2 = 0.15	29.81
328.15 K, x2 = 0.1999	30.97
